Reference: patent US9822124B2, “Bicyclic heteroaromatic carboxamide compounds useful as Pim kinase inhibitors” (Incyte Corporation, priority 2014, dated 2017)

Legend:
Assay type in all cases: biochemical
Pim-1 = Pim-1 (Homo sapiens (Human), UniProt P11309); assay: Pim-1 kinase assay (AlphaScreen, Biotin-labeled BAD peptide substrate); settings: 1 mM ATP; read-out: Pim1 IC50
Description: (§1) Pim-1 and Pim-3 kinase assays—20 μL reactions were run in white 384 well polystyrene plates dotted with 0.8 μL compound/DMSO in the assay buffer (50 mM Tris, pH 7.5, 0.01% Tween-20, 5 mM MgCl2, 0.01% BSA, 5 mM DTT), containing 0.05 μM Biotin-labeled BAD peptide substrate (AnaSpec 62269), 1 mM ATP, and […] (Pim-1, Invitrogen PV3503) or […] (Pim-3, Millipore 14-738) enzyme for 1 h at 25° C. Reactions were stopped by addition of 10 μL STOP Buffer (150 mM Tris, pH=7.5, 150 mM NaCl, 75 mM EDTA, 0.01% Tween-20, 0.3% BSA) supplemented with Phospho-Bad (Ser112) Antibody (Cell Signaling 9291) diluted 666-fold, and Streptavidin donor beads (PerkinElmer 6760002) along with Protein-A acceptor beads (PerkinElmer 6760137) at 15 μg/mL each. Supplementation of the STOP buffer with beads and stopping the reactions were done under reduced light. Prior to the stopping reactions STOP buffer with beads was preincubated for 1 h in the dark at room temperature. After stopping the reactions, plates were incubated for 1 h in the dark at room temperature before reading on a PHERAstar FS plate reader (BMG Labtech) under reduced light.

Pim-3 = Pim-3 (Homo sapiens (Human), UniProt Q86V86); assay: Pim-3 kinase assay (AlphaScreen, Biotin-labeled BAD peptide substrate); settings: 1 mM ATP; read-out: Pim3 IC50
Description: as §1

Pim-2 = Pim-2 (Homo sapiens (Human), UniProt Q9P1W9); assay: Pim-2 kinase assay (TR-FRET, Fluorescein-labeled CREBtide peptide substrate); settings: 1 mM ATP; read-out: Pim2 IC50
Description: Pim-2 kinase assay—20 μL reactions were run in white 384 well polystyrene plates dotted with 0.8 μL compound/DMSO in the assay buffer (50 mM Tris, pH 7.5, 0.01% Tween-20, 5 mM MgCl2, 0.01% BSA, 5 mM DTT), containing 0.05 μM Fluorescein-labeled CREBtide peptide substrate (Invitrogen PV3508), 1 mM ATP, and 1 nM enzyme (Invitrogen PV3649) for 2 h at 25° C. Reactions were stopped by addition of 10 μL TR-FRET Dilution Buffer (Invitrogen PV3574) with 30 mM EDTA and 1.5 nM LanthaScreen Tb-CREB pSer133 antibody (Invitrogen PV3566). After 30 min. incubation at room temperature, plates were read on a PHERAstar FS plate reader (BMG Labtech).

Sequence of Pim-1 (P11309 whole entry): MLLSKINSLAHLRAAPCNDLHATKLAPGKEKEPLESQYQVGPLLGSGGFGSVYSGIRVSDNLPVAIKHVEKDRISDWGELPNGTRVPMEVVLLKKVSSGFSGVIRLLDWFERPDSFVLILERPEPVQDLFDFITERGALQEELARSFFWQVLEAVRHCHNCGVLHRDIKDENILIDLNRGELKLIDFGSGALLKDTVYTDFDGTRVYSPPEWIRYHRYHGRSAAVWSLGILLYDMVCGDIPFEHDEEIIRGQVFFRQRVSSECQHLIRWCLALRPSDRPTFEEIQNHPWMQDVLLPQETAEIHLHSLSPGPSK
Sequence of Pim-2 (Q9P1W9 whole entry): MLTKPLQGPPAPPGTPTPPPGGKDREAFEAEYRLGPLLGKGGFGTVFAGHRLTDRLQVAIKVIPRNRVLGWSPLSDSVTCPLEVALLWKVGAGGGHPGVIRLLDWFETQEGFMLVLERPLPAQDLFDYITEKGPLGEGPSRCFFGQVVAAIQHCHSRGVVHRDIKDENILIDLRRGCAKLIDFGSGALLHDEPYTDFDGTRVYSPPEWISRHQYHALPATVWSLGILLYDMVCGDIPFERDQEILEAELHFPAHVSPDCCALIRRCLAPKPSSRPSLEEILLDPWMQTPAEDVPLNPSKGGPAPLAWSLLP

Row | SMILES | IC50 (Pim-1) [nM] | IC50 (Pim-3) [nM] | IC50 (Pim-2) [nM]
1 | C[C@@H]1C[C@H](N)CN(c2ccncc2NC(=O)c2ccc3occ(C4CCOC4)c3n2)C1 (mixture of isomers) [Example 31, N-(4-((3S,5R)-3-Amino-5-methylpiperidin-1-yl)pyridin-3-yl)-3-(tetrahydrofuran-3-yl)furo[3,2-b]pyridine-5-carboxamide] | ≤ 10 | ≤ 10 | 100 to 1000
2 | C[C@H]1CN(c2ccncc2NC(=O)c2ccc3cc([C@@H]4C[C@@H]4C)oc3n2)C[C@@H](N)[C@@H]1O (racemic) [Example 73, N-{4-[(3R,4R,5S)-3-Amino-4-hydroxy-5-methylpiperidin-1-yl]pyridin-3-yl}-2-(cis-2-methylcyclopropyl)furo[2,3-b]pyridine-6-carboxamide] | ≤ 10 | ≤ 10 | ≤ 100
3 | C[C@@H]1C[C@H]1c1cc2ccc(C(=O)Nc3cnccc3N3C[C@@H](N)[C@H](O)[C@@H](C)C3)nc2o1 (racemic) [Example 74, N-{4-[(3R,4R,5S)-3-Amino-4-hydroxy-5-methylpiperidin-1-yl]pyridin-3-yl}-2-(trans-2-methylcyclopropyl)furo[2,3-b]pyridine-6-carboxamide] | ≤ 10 | ≤ 10 | ≤ 100
4 | C[C@@H]1C[C@H](N)CN(c2ccncc2NC(=O)c2ccc3cc([C@@H]4C[C@@H]4C)oc3n2)C1 (racemic) [Example 75, N-{4-[(3S,5R)-3-Amino-5-methylpiperidin-1-yl]pyridin-3-yl}-2-(cis-2-methylcyclopropyl)furo[2,3-b]pyridine-6-carboxamide] | ≤ 10 | ≤ 10 | ≤ 100
5 | C[C@@H]1C[C@H](N)CN(c2ccncc2NC(=O)c2ccc3cc([C@@H]4C[C@H]4C)oc3n2)C1 (racemic) [Example 76, N-{4-[(3S,5R)-3-Amino-5-methylpiperidin-1-yl]pyridin-3-yl}-2-(trans-2-methylcyclopropyl)furo[2,3-b]pyridine-6-carboxamide] | ≤ 10 | ≤ 10 | ≤ 100
6 | CCCc1cc2nc(C(=O)Nc3cnccc3N3C[C@H](C)C[C@H](N)C3)ccc2o1 [Example 1, N-(4-((3S,5R)-3-Amino-5-methylpiperidin-1-yl)pyridin-3-yl)-2-propylfuro[3,2-b]pyridine-5-carboxamide] | ≤ 10 | ≤ 10 | 100 to 1000
7 | CC(C)c1cc2nc(C(=O)Nc3cnccc3N3C[C@H](C)C[C@H](N)C3)ccc2o1 [Example 2, N-{4-[(3S,5R)-3-Amino-5-methylpiperidin-1-yl]pyridin-3-yl}-2-isopropylfuro[3,2-b]pyridine-5-carboxamide] | 10 to 50 | ≤ 10 | 100 to 1000
8 | COc1ccc(-c2cc3nc(C(=O)Nc4cnccc4N4C[C@H](C)C[C@H](N)C4)ccc3o2)cn1 [Example 3, N-(4-((3S,5R)-3-Amino-5-methylpiperidin-1-yl)pyridin-3-yl)-2-(6-methoxypyridin-3-yl)furo[3,2-b]pyridine-5-carboxamide] | ≤ 10 | ≤ 10 | > 2000
9 | C[C@@H]1C[C@H](N)CN(c2ccncc2NC(=O)c2ccc3oc(-c4c(F)cccc4F)cc3n2)C1 [Example 4, N-(4-((3S,5R)-3-Amino-5-methylpiperidin-1-yl)pyridin-3-yl)-2-(2,6-difluorophenyl)furo[3,2-b]pyridine-5-carboxamide] | ≤ 10 | 10 to 50 | > 2000
10 | C[C@@H]1C[C@H](N)CN(c2ccncc2NC(=O)c2ccc3oc(-c4ccc(N5CCOCC5)nc4)cc3n2)C1 [Example 5, N-(4-((3S,5R)-3-Amino-5-methylpiperidin-1-yl)pyridin-3-yl)-2-(6-morpholinopyridin-3-yl)furo[3,2-b]pyridine-5-carboxamide] | ≤ 10 | ≤ 10 | 1000 to 10000
11 | CC(C)c1cc2nc(C(=O)Nc3cnccc3N3C[C@@H](N)[C@H](O)[C@@H](C)C3)ccc2o1 [Example 6, N-{4-[(3R,4R,5S)-3-Amino-4-hydroxy-5-methylpiperidin-1-yl]pyridin-3-yl}-2-isopropylfuro[3,2-b]pyridine-5-carboxamide] | 10 to 50 | ≤ 10 | 100 to 1000
12 | COc1ccc(-c2cc3nc(C(=O)Nc4cnccc4N4C[C@@H](N)[C@H](O)[C@@H](C)C4)ccc3o2)cn1 [Example 7, N-(4-((3R,4R,5S)-3-Amino-4-hydroxy-5-methylpiperidin-1-yl)pyridin-3-yl)-2-(6-methoxypyridin-3-yl)furo[3,2-b]pyridine-5-carboxamide] | ≤ 10 | ≤ 10 | > 2000
13 | C[C@H]1CN(c2ccncc2NC(=O)c2ccc3oc(-c4c(F)cccc4F)cc3n2)C[C@@H](N)[C@@H]1O [Example 8, N-(4-((3R,4R,5S)-3-Amino-4-hydroxy-5-methylpiperidin-1-yl)pyridin-3-yl)-2-(2,6-difluorophenyl)furo[3,2-b]pyridine-5-carboxamide] | ≤ 10 | 10 to 50 | > 2000
14 | C[C@H]1CN(c2ccncc2NC(=O)c2ccc3oc(-c4ccc(N5CCOCC5)nc4)cc3n2)C[C@@H](N)[C@@H]1O [Example 9, N-(4-((3R,4R,5S)-3-Amino-4-hydroxy-5-methylpiperidin-1-yl)pyridin-3-yl)-2-(6-morpholinopyridin-3-yl)furo[3,2-b]pyridine-5-carboxamide] | ≤ 10 | ≤ 10 | 1000 to 10000
15 | CC(C)c1coc2ccc(C(=O)Nc3cnccc3N3C[C@@H](N)[C@H](O)[C@@H](C)C3)nc12 [Example 10, N-(4-((3R,4R,5S)-3-Amino-4-hydroxy-5-methylpiperidin-1-yl)pyridin-3-yl)-3-isopropylfuro[3,2-b]pyridine-5-carboxamide] | ≤ 10 | ≤ 10 | ≤ 100
16 | C[C@H]1CN(c2ccncc2NC(=O)c2ccc3occ(-c4c(F)cccc4F)c3n2)C[C@@H](N)[C@@H]1O [Example 11, N-(4-((3R,4R,5S)-3-Amino-4-hydroxy-5-methylpiperidin-1-yl)pyridin-3-yl)-3-(2,6-difluorophenyl)furo[3,2-b]pyridine-5-carboxamide] | ≤ 10 | ≤ 10 | ≤ 100
17 | C[C@H]1CN(c2ccncc2NC(=O)c2ccc3occ(-c4ccccc4F)c3n2)C[C@@H](N)[C@@H]1O [Example 12, N-(4-((3R,4R,5S)-3-Amino-4-hydroxy-5-methylpiperidin-1-yl)pyridin-3-yl)-3-(2-fluorophenyl)furo[3,2-b]pyridine-5-carboxamide] | ≤ 10 | ≤ 10 | 100 to 1000
18 | COc1ccc(F)c(-c2coc3ccc(C(=O)Nc4cnccc4N4C[C@@H](N)[C@H](O)[C@@H](C)C4)nc23)c1F [Example 13, N-(4-((3R,4R,5S)-3-Amino-4-hydroxy-5-methylpiperidin-1-yl)pyridin-3-yl)-3-(2,6-difluoro-3-methoxyphenyl)furo[3,2-b]pyridine-5-carboxamide] | ≤ 10 | ≤ 10 | 100 to 1000
19 | COc1ccc(-c2coc3ccc(C(=O)Nc4cnccc4N4C[C@@H](N)[C@H](O)[C@@H](C)C4)nc23)cn1 [Example 14, N-(4-((3R,4R,5S)-3-Amino-4-hydroxy-5-methylpiperidin-1-yl)pyridin-3-yl)-3-(6-methoxypyridin-3-yl)furo[3,2-b]pyridine-5-carboxamide] | ≤ 10 | 10 to 50 | 1000 to 10000
20 | CCc1coc2ccc(C(=O)Nc3cnccc3N3C[C@@H](N)[C@H](O)[C@@H](C)C3)nc12 [Example 15, N-(4-((3R,4R,5S)-3-Amino-4-hydroxy-5-methylpiperidin-1-yl)pyridin-3-yl)-3-ethylfuro[3,2-b]pyridine-5-carboxamide] | ≤ 10 | ≤ 10 | ≤ 100
21 | C[C@H]1CN(c2ccncc2NC(=O)c2ccc3occ(C4CCN(C)CC4)c3n2)C[C@@H](N)[C@@H]1O [Example 16, N-(4-((3R,4R,5S)-3-Amino-4-hydroxy-5-methylpiperidin-1-yl)pyridin-3-yl)-3-(1-methylpiperidin-4-yl)furo[3,2-b]pyridine-5-carboxamide] | 10 to 50 | > 40 | > 2000
22 | C[C@H]1CN(c2ccncc2NC(=O)c2ccc3occ(C4CCOCC4)c3n2)C[C@@H](N)[C@@H]1O [Example 17, N-(4-((3R,4R,5S)-3-Amino-4-hydroxy-5-methylpiperidin-1-yl)pyridin-3-yl)-3-(tetrahydro-2H-pyran-4-yl)furo[3,2-b]pyridine-5-carboxamide] | ≤ 10 | ≤ 10 | 100 to 1000
